Experimental findings from patent publication US7060844B2, “(3Z)-3-(2,3-dihydro-1H-inden-1-ylidene)-1,3-dihydro-2H-indol-2-ones as kinase inhibitors” (Allergan, Inc., priority 2002, dated 2006) are described below.

Experiment [1] deals with VEGF induced increases in intracellular calcium levels in HUVEC (human umbilical vein endothelial cells). The experiment can be described thus: VEGF Stimulated Ca++ Signal in Vitro (FLIPR, cell based assay). The note with it: for IC50: VEGF stimulation 5 ng/mL, 30 min pre-incubation, 0.01 to 10.0 uM. As for the experimental part: VEGF Stimulated Ca^++ Signal in Vitro
Automated FLIPR (Fluorometric Imaging Plate Reader) technology was used to screen for inhibitors of VEGF induced increases in intracellular calcium levels in fluorescent dye loaded endothelial cells. HUVEC (human umbilical vein endothelial cells) (Clonetics) were seeded in 96-well fibronectin coated black-walled plates overnight @ 37° C./5% CO2. Cells were loaded with calcium indicator Fluo-4 for 45 minutes at 37° C. Cells were washed 4 times (Original Cell Wash, Labsystems) to remove extracellular dye. For screening, cells were pre-incubated with test agents for 30 minutes at a single concentration (10 uM) or at concentrations ranging from 0.01 to 10.0 uM, followed by VEGF stimulation (5 ng/mL). Changes in fluorescence at 516 nm were measured simultaneously in all 96 wells using a cooled CCD camera. Data were generated by determining max-min fluorescence levels for unstimulated, stimulated, and drug treated samples. IC50 values for test compounds were calculated from % inhibition of VEGF stimulated responses in the absence of inhibitor.

The target of experiment [2] is T1, cytoplasmic domain of the human VEGF receptor (VEGFR-2) (Homo sapiens, UniProt P35968).
T1 construct: The cytoplasmic domain of the human VEGF receptor (VEGFR-2) was expressed; His (Histidine tag); made in house; host or cells: insect cells (engineered baculovirus)
T1 sequence (P35968 786-1356 limits assumed): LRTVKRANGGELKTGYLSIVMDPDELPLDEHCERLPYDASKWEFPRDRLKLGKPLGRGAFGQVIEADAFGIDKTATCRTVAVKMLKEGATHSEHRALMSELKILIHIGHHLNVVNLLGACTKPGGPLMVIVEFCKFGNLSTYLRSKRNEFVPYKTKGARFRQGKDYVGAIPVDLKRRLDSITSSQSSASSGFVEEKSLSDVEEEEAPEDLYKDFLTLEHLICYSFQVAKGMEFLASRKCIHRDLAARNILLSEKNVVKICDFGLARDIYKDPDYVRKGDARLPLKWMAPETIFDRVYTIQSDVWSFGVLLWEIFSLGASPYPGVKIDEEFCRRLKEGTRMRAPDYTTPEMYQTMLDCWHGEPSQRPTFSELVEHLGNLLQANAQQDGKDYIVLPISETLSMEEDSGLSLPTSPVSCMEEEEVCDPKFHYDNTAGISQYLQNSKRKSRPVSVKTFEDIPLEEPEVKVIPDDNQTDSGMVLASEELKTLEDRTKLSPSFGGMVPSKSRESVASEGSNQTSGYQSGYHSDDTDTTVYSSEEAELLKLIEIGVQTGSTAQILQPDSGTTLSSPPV
Briefly: KDR kinase assay (ELISA, poly-Glu-Tyr substrate, with BSA). The note with it: His-VEGFR-2, 3.6 μM ATP, plates incubated with 1% BSA. The experiment is classed as biochemical. As for the experimental part: The cytoplasmic domain of the human VEGF receptor (VEGFR-2) was expressed as a Histidine-tagged fusion protein following infection of insect cells using an engineered baculovirus. His-VEGFR-2 was purified to homogeneity, as determined by SDS-PAGE, using nickel resin chromatography. Kinase assays were performed in 96 well microtiter plates that were coated overnight with 30 μg of poly-Glu-Tyr (4:1) in 10 mM Phosphate Buffered Saline (PBS), pH 7.2–7.4. The plates were incubated with 1% BSA and then washed four times with PBS prior to starting the reaction. Reactions were carried out in 120 μL reaction volumes containing 3.6 μM ATP in kinase buffer (50 mM Hepes pH 7.4, 20 mM MgCl2, 0.1 mM MnCl2 and 0.2 mM Na3VO4). Test compounds were reconstituted in 100% DMSO and added to the reaction to give a final DMSO concentration of 5%. Reactions were initiated by the addition 0.5 ng of purified protein. Following a ten minute incubation at 25° C., the reactions were washed four times with PBS containing 0.05% Tween-20. 100 μl of a monoclonal anti-phosphotyrosine antibody-peroxidase conjugate was diluted 1:10000 in PBS-Tween-20 and added to the wells for 30 minutes. Following four washes with PBS-Tween-20, 100 μl of 0-Phenylenediamine Dihydrochloride in Phosphate-citrate buffer, containing urea hydrogen peroxide, was added to the wells for 7 minutes as a colorimetric substrate for the peroxidase. The reaction was terminated by the addition of 100 μl of 2.5N H2SO4 to each well and read using a microplate ELISA reader set at 492 nm. IC50 values for compound inhibition were calculated directly from graphs of optical density (arbitrary units) versus compound concentration following subtraction of blank values.

Where [3] appears, read: Homo sapiens, single concentration 10 uM, VEGF 5 ng/mL.

For the molecule `CC(=O)Nc1ccc2c(c1)C(=C1C(=O)Nc3ccc(Cl)cc31)OC2` [Example 20, N-[3-(5-Chloro-2-oxo-1,2-dihydro-indol-3-ylidene)-1,3-dihydro-isobenzofuran-5-yl]-acetamide], the 50% inhibitory concentration (IC50) was 0.097 µM in experiment [1] (Homo sapiens) and 0.39 µM in experiment [2]. Besides, the inhibition at 10 µM in experiment [1] (setting [3]) was found to be 99%.
For the molecule `Nc1ccc(CO)c(C(=O)Nc2ccc3c(c2)C(=C2C(=O)Nc4ccccc42)OC3)c1` [Example 13, 5-Amino-2-hydroxymethyl-N-[3-(2-oxo-1,2-dihydro-indol-3-ylidene)-1,3-dihydro-isobenzofuran-5-yl]-benzamide], the IC50 in experiment [1] (Homo sapiens) stood at 2.1 µM; in experiment [2], 1.34 µM. Besides, the inhibition at 10 µM in experiment [1] (setting [3]) turned out to be 99%.
`Nc1ccc2c(c1)C(=C1C(=O)Nc3ccc(Cl)cc31)OC2` [Example 16, 3-(6-Amino-3H-isobenzofuran-1-ylidene)-5-chloro-1,3-dihydro-indol-2-one]: the IC50 in experiment [1] (Homo sapiens) amounted to 0.06 µM; in experiment [2], 0.015 µM. Besides, in experiment [1] (setting [3]), the inhibition at 10 µM was 99%.
Turning to `CN(C)c1ccc2c(c1)C(=C1C(=O)Nc3ccccc31)OC2` [Example 21, 3-(6-Dimethylamino-3H-isobenzofuran-1-ylidene)-1,3-dihydro-indol-2-one], the IC50 is 1.31 µM in experiment [1] (Homo sapiens) and 1.69 µM in experiment [2]. In addition, the inhibition at 10 µM in experiment [1] (setting [3]) was 94%.
Consider `Nc1ccc2c(c1)COC2=C1C(=O)Nc2ccccc21` [Example 12, 3-(5-Amino-3H-isobenzofuran-1-ylidene)-1,3-dihydro-indol-2-one], for which the IC50 came out at 0.04 µM in experiment [1] (Homo sapiens) and 0.065 µM in experiment [2]. Besides, the inhibition at 10 µM in experiment [1] (setting [3]) stood at 98%.
Turning to `Nc1ccc2c(c1)CO/C2=C1/C(=O)Nc2ccc(Cl)cc21` [Example 17, 3-(5-Amino-3H-isobenzofuran-1-ylidene)-5-chloro-1,3-dihydro-indol-2-one], the IC50 in experiment [1] (Homo sapiens) was found to be 0.055 µM; in experiment [2] it was 0.139 µM. The inhibition at 10 µM in experiment [1] (setting [3]) was 98%.
`CCNc1ccc2c(c1)COC2=C1C(=O)Nc2ccccc21` [Example 15, 3-(5-Ethylamino-3H-isobenzofuran-1-ylidene)-1,3-dihydro-indol-2-one]: the figures for the IC50 in experiment [1] (Homo sapiens) and in experiment [2] were 0.051 µM and 0.037 µM, respectively. Moreover, the inhibition at 10 µM in experiment [1] (setting [3]) was determined as 95%.
Regarding `CCCC(=O)Nc1ccc2c(c1)C(=C1C(=O)Nc3ccccc31)OC2` [Example 7, N-[3-(2-Oxo-1,2-dihydro-indol-3-ylidene)-1,3-dihydro-isobenzofuran-5-yl]-butyramide], in experiment [1] (setting [3]), the inhibition at 10 µM is 5%. In experiment [2], this molecule registered a half-inhibitory concentration (IC50) of 9.78 µM.
For `CC(=O)Nc1ccc2c(c1)COC2=C1C(=O)Nc2ccccc21` [Example 18, N-[1-(2-Oxo-1,2-dihydro-indol-3-ylidene)-1,3-dihydro-isobenzofuran-5-yl]-acetamide], the IC50 in experiment [1] (Homo sapiens) turned out to be 0.04 µM; in experiment [2] it was 0.063 µM. Further, the inhibition at 10 µM in experiment [1] (setting [3]) was found to be 97%.
For `COc1ccc(CC(=O)Nc2ccc3c(c2)C(=C2C(=O)Nc4ccccc42)OC3)cc1` [Example 10, 2-(4-Methoxy-phenyl)-N-[3-(2-oxo-1,2-dihydro-indol-3-ylidene)-1,3-dihydro-isobenzofuran-5-yl]-acetamide], the inhibition at 10 µM in experiment [1] (setting [3]) worked out at 50%. In experiment [2], this molecule came in with a half-inhibitory concentration (IC50) of 8.02 µM.
Regarding “[3-(2-Oxo-1,2-dihydro-indol-3-ylidene)-1,3-dihydro-isobenzofuran-5-yl]-acetamide [Example 6]”, the results for the IC50 in experiment [1] and in experiment [2] were 1.23 µM and 1.11 µM, respectively. Further, the “VEGF (% inhibition @ 10 uM) (Cell based assay, Ca++)” value in experiment [1] (single concentration 10 uM, VEGF 5 ng/mL) turned out to be 97%.
Regarding `O=C(CCCCl)Nc1ccc2c(c1)C(=C1C(=O)Nc3ccccc31)OC2` [Example 9, 4-Chloro-N-[3-(2-oxo-1,2-dihydro-indol-3-ylidene)-1,3-dihydro-isobenzofuran-5-yl]-butyramide], the inhibition at 10 µM in experiment [1] (setting [3]) came out at 35%. Further, the 50% inhibitory concentration (IC50) in experiment [2] stood at 3.25 µM.
On to `O=C1Nc2ccc(Cl)cc2C1=C1OCc2ccccc21` [Example 2, 5-Chloro-3-(3H-isobenzofuran-1-ylidene)-1,3-dihydro-indol-2-one], for which, in experiment [1] (Homo sapiens), the IC50 is 0.05 µM. For the same molecule, the inhibition at 10 µM in experiment [1] (setting [3]) was 98%.
On to `Cc1cccc2c1C(=C1OCc3ccccc31)C(=O)N2` [Example 3, 3-(3H-Isobenzofuran-1-ylidene)-4-methyl-1,3-dihydro-indol-2-one], for which, in experiment [1] (Homo sapiens), the IC50 came out at 0.685 µM. The inhibition at 10 µM in experiment [1] (setting [3]) is 95%.
`CNc1ccc2c(c1)C(=C1C(=O)Nc3ccccc31)OC2` [Example 22, 3-(6-Methylamino-3H-isobenzofuran-1-ylidene)-1,3-dihydro-indol-2-one]: the 50% inhibitory concentration (IC50) in experiment [1] (Homo sapiens) amounted to 0.29 µM; in experiment [2] it was 0.17 µM. Besides, the inhibition at 10 µM in experiment [1] (setting [3]) came to 96%.
For `Nc1ccc2c(c1)C(=C1C(=O)Nc3ccccc31)OC2` [Example 5, 3-(6-Amino-3H-isobenzofuran-1-ylidene)-1,3-dihydro-indol-2-one] the same measures were 0.04 µM, 0.13 µM and 98%.
Turning to `CC(=O)Nc1ccc2c(c1)COC2=C1C(=O)Nc2ccc(Cl)cc21` [Example 19, N-[1-(5-Chloro-2-oxo-1,2-dihydro-indol-3-ylidene)-1,3-dihydro-isobenzofuran-5-yl]-acetamide], the IC50 was 0.05 µM in experiment [1] (Homo sapiens) and 0.066 µM in experiment [2]. Also, the inhibition at 10 µM in experiment [1] (setting [3]) was 99%.
For `O=C1Nc2ccccc2C1=C1OCc2ccc(NC(=O)C3CC3)cc21` [Example 8, Cyclopropanecarboxylic acid [3-(2-oxo-1,2-dihydro-indol-3-ylidene)-1,3-dihydro-isobenzofuran-5-yl]-amide], the inhibition at 10 µM in experiment [1] (setting [3]) was determined as 48%. For the same molecule, in experiment [2], half-maximal inhibition (IC50) required 0.85 µM.
In the case of `O=C1Nc2ccccc2C1=C1OCc2ccc(NCCCO)cc21` [Example 14, 3-[6-(3-Hydroxy-propylamino)-3H-isobenzofuran-1-ylidene]-1,3-dihydro-indol-2-one], the results for the IC50 in experiment [1] (Homo sapiens) and in experiment [2] were 0.85 µM and 0.64 µM, respectively. The inhibition at 10 µM in experiment [1] (setting [3]) amounted to 100%.
Turning to `O=C1Nc2ccccc2C1=C1OCc2ccccc21` [Example 1, 3-(3H-isobenzofuran-1-ylidene)-1,3-dihydro-indol-2-one], in experiment [1] (Homo sapiens), the concentration for half-maximal inhibition (IC50) came out at 0.11 µM. Further, the inhibition at 10 µM in experiment [1] (setting [3]) worked out at 99%.
For `CN(C)c1ccc2c(c1)COC2=C1C(=O)Nc2ccccc21` [Example 23, 3-(5-Dimethylamino-3H-isobenzofuran-1-ylidene)-1,3-dihydro-indol-2-one], the figures for the IC50 in experiment [1] (Homo sapiens) and in experiment [2] were 0.096 µM and 0.043 µM, respectively. Further, the inhibition at 10 µM in experiment [1] (setting [3]) came to 96%.
For `CNc1ccc2c(c1)COC2=C1C(=O)Nc2ccccc21` [Example 24, 3-(5-Methylamino-3H-isobenzofuran-1-ylidene)-1,3-dihydro-indol-2-one], the IC50 in experiment [1] (Homo sapiens) was 0.073 µM; in experiment [2], 0.061 µM. Moreover, the inhibition at 10 µM in experiment [1] (setting [3]) amounted to 98%.
For `O=C1Nc2ccc(F)cc2C1=C1OCc2ccccc21` [Example 4, 5-Fluoro-3-(3H-isobenzofuran-1-ylidene)-1,3-dihydro-indol-2-one] the same measures were 0.055 µM, 0.073 µM and 99%.
`CCNc1ccc2c(c1)C(=C1C(=O)Nc3ccccc31)OC2` [Example 11, 3-(6-Ethylamino-3H-isobenzofuran-1-ylidene)-1,3-dihydro-indol-2-one]: the results for the IC50 in experiment [1] (Homo sapiens) and in experiment [2] were 0.78 µM and 0.66 µM, respectively. The inhibition at 10 µM in experiment [1] (setting [3]) worked out at 99%.

In general, IC50 refers to the concentration that inhibits the measured activity by half. The term inhibition denotes the percentage by which the read-out fell short of the control.
